# From the supplement of paper PMC10307832
# Tests used:
# Assay in all cases: relative viability (nuclei count vs DMSO), 5 days (fraction); higher = more cells survive
# [1] = test system: COR-L 105
# Method in brief: (§1)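 Lung cancer cell lines in 1536-well plates got either a single drug or a fixed anchor-drug dose together with five library-drug doses (not always all listed) in √10 steps, by pin tool, on the day after seeding. Nuclei were counted after 5 days, and relative viability is the treated-to-vehicle ratio of nuclei counts. Values are medians of duplicate plates.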
# [2] = test system: NCI-H1944
# Method in brief: as §1
# [3] = test system: SK-LU-1
# Method in brief: as §1
# [4] = test system: LU99A
# Method in brief: as §1
# [5] = test system: NCI-H1793
# Method in brief: as §1
# [6] = test system: A-427
# Method in brief: as §1
# [7] = test system: NCI-H1755
# Method in brief: as §1
# [8] = test system: HCC-366
# Method in brief: as §1
# [9] = test system: LC-2-ad
# Method in brief: as §1
# [10] = test system: NCI-H2170
# Method in brief: as §1
# [11] = test system: NCI-H1792
# Method in brief: as §1
# [12] = test system: HCC-78
# Method in brief: as §1
# [13] = test system: HOP-62
# Method in brief: as §1
# [14] = test system: NCI-H1915
# Method in brief: as §1
# [15] = test system: NCI-H1975
# Method in brief: as §1
# [16] = test system: NCI-H2085
# Method in brief: as §1
# [17] = test system: LCLC-97TM1
# Method in brief: as §1
# [18] = test system: NCI-H460
# Method in brief: as §1
# [19] = test system: UMC-11
# Method in brief: as §1
# [20] = test system: LXF-289
# Method in brief: as §1
# [21] = test system: EPLC-272H
# Method in brief: as §1
smiles,measurement,setting,value
COc1cc(N2CCC(C(N)=O)CC2)ccc1Nc1nc(N)c(Cl)c(Nc2ccccc2S(=O)(=O)C(C)C)n1 [HG-5-88-01] + CC1(C)CCC(c2ccc(Cl)cc2)=C(CN2CCN(c3ccc(C(=O)NS(=O)(=O)c4ccc(N[C@H](CCN5CCOCC5)CSc5ccccc5)c(S(=O)(=O)C(F)(F)F)c4)cc3)CC2)C1 [Navitoclax] (partner 0.5 µM),relative viability,[1]; first compound 0.04 µM,0.644
same,relative viability,[1]; first compound 0.1265 µM,0.833
same,relative viability,[1]; first compound 0.4 µM,0.838
same,relative viability,[1]; first compound 1.265 µM,0.645
same,relative viability,[1]; first compound 4 µM,0.809
same,relative viability,[2]; first compound 0.04 µM,1.03
same,relative viability,[2]; first compound 0.1265 µM,1.15
same,relative viability,[2]; first compound 0.4 µM,1.11
same,relative viability,[2]; first compound 1.265 µM,0.985
same,relative viability,[2]; first compound 4 µM,1.04
same,relative viability,[3]; first compound 0.04 µM,0.997
same,relative viability,[3]; first compound 0.1265 µM,0.99
same,relative viability,[3]; first compound 0.4 µM,0.791
same,relative viability,[3]; first compound 1.265 µM,0.98
same,relative viability,[3]; first compound 4 µM,0.791
same,relative viability,[4]; first compound 0.04 µM,0.781
same,relative viability,[4]; first compound 0.1265 µM,0.96
same,relative viability,[4]; first compound 0.4 µM,0.75
same,relative viability,[4]; first compound 1.265 µM,0.764
same,relative viability,[4]; first compound 4 µM,0.996
same,relative viability,[5]; first compound 0.1265 µM,0.409
same,relative viability,[5]; first compound 0.4 µM,0.473
same,relative viability,[5]; first compound 1.265 µM,0.296
same,relative viability,[5]; first compound 4 µM,0.438
same,relative viability,[6]; first compound 0.04 µM,0.97
same,relative viability,[6]; first compound 0.1265 µM,1.04
same,relative viability,[6]; first compound 0.4 µM,0.956
same,relative viability,[6]; first compound 1.265 µM,1.04
same,relative viability,[6]; first compound 4 µM,0.835
same,relative viability,[7]; first compound 0.1265 µM,0.991
same,relative viability,[7]; first compound 0.4 µM,1.01
same,relative viability,[7]; first compound 1.265 µM,1.01
same,relative viability,[7]; first compound 4 µM,1.01
same,relative viability,[8]; first compound 0.04 µM,0.952
same,relative viability,[8]; first compound 0.1265 µM,1.04
same,relative viability,[8]; first compound 0.4 µM,0.79
same,relative viability,[8]; first compound 1.265 µM,1.02
same,relative viability,[8]; first compound 4 µM,1.29
same,relative viability,[9]; first compound 0.04 µM,0.444
same,relative viability,[9]; first compound 0.1265 µM,0.45
same,relative viability,[9]; first compound 0.4 µM,0.477
same,relative viability,[9]; first compound 1.265 µM,0.379
same,relative viability,[9]; first compound 4 µM,0.278
same,relative viability,[10]; first compound 0.04 µM,0.554
same,relative viability,[10]; first compound 0.1265 µM,0.574
same,relative viability,[10]; first compound 0.4 µM,0.674
same,relative viability,[10]; first compound 1.265 µM,0.311
same,relative viability,[10]; first compound 4 µM,0.73
same,relative viability,[11]; first compound 0.04 µM,0.685
same,relative viability,[11]; first compound 0.1265 µM,0.614
same,relative viability,[11]; first compound 0.4 µM,0.578
same,relative viability,[11]; first compound 1.265 µM,0.685
same,relative viability,[11]; first compound 4 µM,0.738
same,relative viability,[12]; first compound 0.04 µM,0.749
same,relative viability,[12]; first compound 0.1265 µM,0.555
same,relative viability,[12]; first compound 0.4 µM,0.363
same,relative viability,[12]; first compound 1.265 µM,0.158
same,relative viability,[12]; first compound 4 µM,0.297
same,relative viability,[13]; first compound 0.04 µM,0.987
same,relative viability,[13]; first compound 0.1265 µM,0.948
same,relative viability,[13]; first compound 0.4 µM,0.986
same,relative viability,[13]; first compound 1.265 µM,0.919
same,relative viability,[13]; first compound 4 µM,1.01
same,relative viability,[14]; first compound 0.04 µM,0.771
same,relative viability,[14]; first compound 0.1265 µM,0.783
same,relative viability,[14]; first compound 0.4 µM,0.813
same,relative viability,[14]; first compound 1.265 µM,0.845
same,relative viability,[14]; first compound 4 µM,0.669
same,relative viability,[15]; first compound 0.04 µM,1.13
same,relative viability,[15]; first compound 0.1265 µM,1.15
same,relative viability,[15]; first compound 0.4 µM,1.09
same,relative viability,[15]; first compound 1.265 µM,0.858
same,relative viability,[15]; first compound 4 µM,0.352
same,relative viability,[16]; first compound 0.04 µM,1.2
same,relative viability,[16]; first compound 0.1265 µM,1.26
same,relative viability,[16]; first compound 0.4 µM,1.06
same,relative viability,[16]; first compound 1.265 µM,0.873
same,relative viability,[16]; first compound 4 µM,1.13
same,relative viability,[17]; first compound 0.04 µM,0.374
same,relative viability,[17]; first compound 0.1265 µM,0.689
same,relative viability,[17]; first compound 0.4 µM,0.347
same,relative viability,[17]; first compound 1.265 µM,0.296
same,relative viability,[17]; first compound 4 µM,0.321
same,relative viability,[18]; first compound 0.04 µM,0.975
same,relative viability,[18]; first compound 0.1265 µM,1.12
same,relative viability,[18]; first compound 0.4 µM,0.901
same,relative viability,[18]; first compound 1.265 µM,1.15
same,relative viability,[18]; first compound 4 µM,1.06
same,relative viability,[19]; first compound 0.04 µM,0.338
same,relative viability,[19]; first compound 0.1265 µM,0.376
same,relative viability,[19]; first compound 0.4 µM,0.333
same,relative viability,[19]; first compound 1.265 µM,0.322
same,relative viability,[19]; first compound 4 µM,0.303
same,relative viability,[20]; first compound 0.04 µM,0.937
same,relative viability,[20]; first compound 0.1265 µM,0.979
same,relative viability,[20]; first compound 0.4 µM,0.972
same,relative viability,[20]; first compound 1.265 µM,1.01
same,relative viability,[20]; first compound 4 µM,1.02
same,relative viability,[21]; first compound 0.04 µM,1.22
same,relative viability,[21]; first compound 0.1265 µM,1.05
same,relative viability,[21]; first compound 0.4 µM,1.28
same,relative viability,[21]; first compound 1.265 µM,0.982
same,relative viability,[21]; first compound 4 µM,0.27
CC(C)Oc1cc(Nc2nc(N[C@@H](C)c3ccc(F)cn3)ncc2Cl)n[nH]1 [AZ23] + CC1(C)CCC(c2ccc(Cl)cc2)=C(CN2CCN(c3ccc(C(=O)NS(=O)(=O)c4ccc(N[C@H](CCN5CCOCC5)CSc5ccccc5)c(S(=O)(=O)C(F)(F)F)c4)cc3)CC2)C1 [Navitoclax] (partner 0.5 µM),relative viability,[1]; first compound 0.01 µM,0.543
same,relative viability,[1]; first compound 0.03162 µM,0.869
same,relative viability,[1]; first compound 0.3162 µM,0.736
same,relative viability,[2]; first compound 0.01 µM,0.985
same,relative viability,[2]; first compound 0.03162 µM,1.07
same,relative viability,[2]; first compound 0.3162 µM,1.01
same,relative viability,[3]; first compound 0.01 µM,0.457
same,relative viability,[3]; first compound 0.03162 µM,1.38
same,relative viability,[3]; first compound 0.3162 µM,0.858
same,relative viability,[4]; first compound 0.01 µM,0.758
same,relative viability,[4]; first compound 0.03162 µM,0.82
same,relative viability,[4]; first compound 0.3162 µM,0.701
same,relative viability,[5]; first compound 0.01 µM,0.425
same,relative viability,[5]; first compound 0.03162 µM,0.302
same,relative viability,[5]; first compound 0.3162 µM,0.341
same,relative viability,[6]; first compound 0.01 µM,0.941
same,relative viability,[6]; first compound 0.03162 µM,1.06
same,relative viability,[6]; first compound 0.3162 µM,0.864
same,relative viability,[7]; first compound 0.01 µM,1.17
same,relative viability,[7]; first compound 0.03162 µM,1.11
same,relative viability,[7]; first compound 0.3162 µM,1.03
same,relative viability,[8]; first compound 0.01 µM,1.3
same,relative viability,[8]; first compound 0.03162 µM,0.998
same,relative viability,[8]; first compound 0.3162 µM,0.883
same,relative viability,[9]; first compound 0.01 µM,0.386
same,relative viability,[9]; first compound 0.03162 µM,0.474
same,relative viability,[9]; first compound 0.3162 µM,0.415
same,relative viability,[10]; first compound 0.01 µM,0.59
same,relative viability,[10]; first compound 0.03162 µM,0.687
same,relative viability,[10]; first compound 0.3162 µM,0.589
same,relative viability,[11]; first compound 0.01 µM,0.763
same,relative viability,[11]; first compound 0.03162 µM,0.858
same,relative viability,[11]; first compound 0.3162 µM,0.693
same,relative viability,[12]; first compound 0.01 µM,0.617
same,relative viability,[12]; first compound 0.03162 µM,0.662
same,relative viability,[12]; first compound 0.3162 µM,0.488
same,relative viability,[13]; first compound 0.01 µM,0.94
same,relative viability,[13]; first compound 0.03162 µM,1.21
same,relative viability,[13]; first compound 0.3162 µM,1.18
same,relative viability,[14]; first compound 0.01 µM,0.799
same,relative viability,[14]; first compound 0.03162 µM,0.845
same,relative viability,[14]; first compound 0.3162 µM,0.797
same,relative viability,[15]; first compound 0.01 µM,1.24
same,relative viability,[15]; first compound 0.03162 µM,1.41
same,relative viability,[15]; first compound 0.3162 µM,1.2
same,relative viability,[16]; first compound 0.01 µM,1.31
same,relative viability,[16]; first compound 0.03162 µM,1.27
same,relative viability,[16]; first compound 0.3162 µM,1.11
same,relative viability,[17]; first compound 0.01 µM,0.381
same,relative viability,[17]; first compound 0.03162 µM,0.364
same,relative viability,[17]; first compound 0.3162 µM,0.603
same,relative viability,[18]; first compound 0.01 µM,1.12
same,relative viability,[18]; first compound 0.03162 µM,1.41
same,relative viability,[18]; first compound 0.3162 µM,1.44
same,relative viability,[19]; first compound 0.01 µM,0.271
same,relative viability,[19]; first compound 0.03162 µM,0.334
same,relative viability,[19]; first compound 0.3162 µM,0.304
same,relative viability,[20]; first compound 0.01 µM,1.08
same,relative viability,[20]; first compound 0.03162 µM,0.951
same,relative viability,[20]; first compound 0.3162 µM,0.888
same,relative viability,[21]; first compound 0.01 µM,1.3
same,relative viability,[21]; first compound 0.03162 µM,1.16
